Source: ChEMBL document CHEMBL3632549, “Targeting EGFR/HER2 tyrosine kinases with a new potent series of 6-substituted 4-anilinoquinazoline hybrids: Design, synthesis, kinase assay, cell-based assay, and molecular docking” (Bioorg Med Chem Lett, 2015)

Columns and labels:
[1] = molecular target: Epidermal growth factor receptor (Homo sapiens, UniProt P00533); assay: Inhibition of EGFR (unknown origin) after 120 mins by HotSpot assay
[2] = molecular target: Receptor tyrosine-protein kinase erbB-2 (Homo sapiens, UniProt P04626); assay: Inhibition of HER2 (unknown origin) after 120 mins by HotSpot assay
Receptor tyrosine-protein kinase erbB-2, sequence (P04626 whole entry): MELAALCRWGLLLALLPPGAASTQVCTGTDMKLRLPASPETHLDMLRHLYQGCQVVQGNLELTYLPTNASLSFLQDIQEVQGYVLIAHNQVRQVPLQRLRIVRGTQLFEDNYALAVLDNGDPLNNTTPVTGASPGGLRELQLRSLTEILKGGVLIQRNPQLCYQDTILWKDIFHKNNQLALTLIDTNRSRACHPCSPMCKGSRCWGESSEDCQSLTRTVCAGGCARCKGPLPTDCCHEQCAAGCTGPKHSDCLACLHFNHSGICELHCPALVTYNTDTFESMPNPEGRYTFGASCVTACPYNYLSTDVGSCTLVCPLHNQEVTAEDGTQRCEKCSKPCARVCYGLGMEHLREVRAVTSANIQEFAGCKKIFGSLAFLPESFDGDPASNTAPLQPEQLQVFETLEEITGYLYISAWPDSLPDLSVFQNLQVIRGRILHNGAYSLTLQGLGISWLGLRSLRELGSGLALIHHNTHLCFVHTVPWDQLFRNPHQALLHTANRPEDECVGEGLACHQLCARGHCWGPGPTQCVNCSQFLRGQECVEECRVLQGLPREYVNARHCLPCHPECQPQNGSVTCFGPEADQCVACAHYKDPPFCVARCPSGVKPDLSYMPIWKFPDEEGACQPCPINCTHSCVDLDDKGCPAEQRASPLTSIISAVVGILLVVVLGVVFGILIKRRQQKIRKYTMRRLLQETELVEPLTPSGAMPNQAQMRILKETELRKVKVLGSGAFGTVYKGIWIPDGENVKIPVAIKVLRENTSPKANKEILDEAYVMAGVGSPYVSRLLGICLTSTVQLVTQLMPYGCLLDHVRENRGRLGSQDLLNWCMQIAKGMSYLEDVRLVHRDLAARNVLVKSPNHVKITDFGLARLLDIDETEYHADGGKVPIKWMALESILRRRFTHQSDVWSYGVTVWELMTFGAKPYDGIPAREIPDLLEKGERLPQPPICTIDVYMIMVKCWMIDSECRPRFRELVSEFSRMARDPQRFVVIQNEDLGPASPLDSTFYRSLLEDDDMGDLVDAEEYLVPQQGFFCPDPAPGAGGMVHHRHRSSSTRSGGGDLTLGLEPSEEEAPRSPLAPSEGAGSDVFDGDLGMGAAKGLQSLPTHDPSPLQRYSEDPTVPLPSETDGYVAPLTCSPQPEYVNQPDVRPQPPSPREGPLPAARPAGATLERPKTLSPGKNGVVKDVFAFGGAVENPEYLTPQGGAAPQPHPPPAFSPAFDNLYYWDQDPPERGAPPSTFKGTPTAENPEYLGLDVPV

[3] = test system: BT-474; assay: Cytotoxicity against human BT474 cells expressing HER2 after 72 hrs by Cell Titer Glo assay; assay type: functional; conditions: BT-474, 72 h
[4] = Cytotoxicity against human L-132 cells after 48 hrs by MTT assay; assay type: cell-based; conditions: L132, 48 h
[5] = molecular target: Cyclin-dependent kinase 2 (Homo sapiens, UniProt P24941); assay: Inhibition of CDK2 (unknown origin) after 120 mins by HotSpot assay
[6] = molecular target: Vascular endothelial growth factor receptor 2 (Homo sapiens, UniProt P35968); assay: Inhibition of VEGFR2 (unknown origin) after 120 mins by HotSpot assay
[7] = molecular target: Fibroblast growth factor receptor 1 (Homo sapiens, UniProt P11362); assay: Inhibition of FGFR1 (unknown origin) after 120 mins by HotSpot assay
[8] = molecular target: Tyrosine-protein kinase Lck (Homo sapiens, UniProt P06239); assay: Inhibition of LCK (unknown origin) after 120 mins by HotSpot assay
[9] = molecular target: Hepatocyte growth factor receptor (Homo sapiens, UniProt P08581); assay: Inhibition of c-MET (unknown origin) after 120 mins by HotSpot assay
Hepatocyte growth factor receptor, sequence (P08581 whole entry): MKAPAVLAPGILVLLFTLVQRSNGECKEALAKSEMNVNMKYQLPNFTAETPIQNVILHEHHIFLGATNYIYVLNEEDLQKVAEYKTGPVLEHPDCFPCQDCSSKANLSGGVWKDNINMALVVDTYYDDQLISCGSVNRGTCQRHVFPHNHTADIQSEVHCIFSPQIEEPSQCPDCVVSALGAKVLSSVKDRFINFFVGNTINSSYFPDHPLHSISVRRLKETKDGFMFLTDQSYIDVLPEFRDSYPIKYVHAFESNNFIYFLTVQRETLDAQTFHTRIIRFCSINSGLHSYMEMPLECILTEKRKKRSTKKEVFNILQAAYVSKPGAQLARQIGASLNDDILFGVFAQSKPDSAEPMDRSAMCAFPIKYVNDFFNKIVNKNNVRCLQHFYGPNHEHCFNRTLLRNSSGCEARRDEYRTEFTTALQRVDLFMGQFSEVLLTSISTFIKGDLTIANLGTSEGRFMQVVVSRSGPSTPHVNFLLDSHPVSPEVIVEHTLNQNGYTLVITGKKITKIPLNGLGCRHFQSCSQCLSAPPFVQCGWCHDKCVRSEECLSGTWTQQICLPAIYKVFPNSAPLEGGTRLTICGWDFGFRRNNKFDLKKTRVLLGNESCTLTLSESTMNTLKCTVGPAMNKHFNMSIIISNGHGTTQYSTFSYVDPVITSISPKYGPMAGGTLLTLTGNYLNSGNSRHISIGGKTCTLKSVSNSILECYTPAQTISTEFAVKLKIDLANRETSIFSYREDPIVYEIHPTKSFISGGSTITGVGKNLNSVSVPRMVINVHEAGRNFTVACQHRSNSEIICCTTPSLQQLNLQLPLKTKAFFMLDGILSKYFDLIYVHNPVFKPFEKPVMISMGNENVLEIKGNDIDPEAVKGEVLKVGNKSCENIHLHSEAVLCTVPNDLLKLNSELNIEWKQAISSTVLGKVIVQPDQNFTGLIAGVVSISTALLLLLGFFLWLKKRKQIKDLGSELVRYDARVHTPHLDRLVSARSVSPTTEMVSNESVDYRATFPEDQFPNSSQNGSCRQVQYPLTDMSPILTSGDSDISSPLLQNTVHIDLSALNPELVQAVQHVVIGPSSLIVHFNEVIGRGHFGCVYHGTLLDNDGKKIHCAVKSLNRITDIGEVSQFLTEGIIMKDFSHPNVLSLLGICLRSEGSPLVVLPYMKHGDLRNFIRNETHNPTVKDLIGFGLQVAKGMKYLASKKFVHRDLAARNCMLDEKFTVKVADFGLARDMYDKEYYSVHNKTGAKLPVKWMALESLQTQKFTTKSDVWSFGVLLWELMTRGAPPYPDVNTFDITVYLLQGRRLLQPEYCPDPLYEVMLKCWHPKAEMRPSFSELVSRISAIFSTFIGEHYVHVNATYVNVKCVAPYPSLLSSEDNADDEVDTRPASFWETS

[10] = molecular target: Mitogen-activated protein kinase 14 (Homo sapiens, UniProt Q16539); assay: Inhibition of P38a (unknown origin) after 120 mins by HotSpot assay
[11] = molecular target: MAP kinase-activated protein kinase 2 (Homo sapiens, UniProt P49137); assay: Inhibition of MAPKAPK2 (unknown origin) after 120 mins by HotSpot assay
[12] = molecular target: Insulin-like growth factor 1 receptor (Homo sapiens, UniProt P08069); assay: Inhibition of IGF1R (unknown origin) after 120 mins by HotSpot assay
[13] = molecular target: Focal adhesion kinase 1 (Homo sapiens, UniProt Q05397); assay: Inhibition of FAK (unknown origin) after 120 mins by HotSpot assay
Focal adhesion kinase 1, sequence (Q05397 whole entry): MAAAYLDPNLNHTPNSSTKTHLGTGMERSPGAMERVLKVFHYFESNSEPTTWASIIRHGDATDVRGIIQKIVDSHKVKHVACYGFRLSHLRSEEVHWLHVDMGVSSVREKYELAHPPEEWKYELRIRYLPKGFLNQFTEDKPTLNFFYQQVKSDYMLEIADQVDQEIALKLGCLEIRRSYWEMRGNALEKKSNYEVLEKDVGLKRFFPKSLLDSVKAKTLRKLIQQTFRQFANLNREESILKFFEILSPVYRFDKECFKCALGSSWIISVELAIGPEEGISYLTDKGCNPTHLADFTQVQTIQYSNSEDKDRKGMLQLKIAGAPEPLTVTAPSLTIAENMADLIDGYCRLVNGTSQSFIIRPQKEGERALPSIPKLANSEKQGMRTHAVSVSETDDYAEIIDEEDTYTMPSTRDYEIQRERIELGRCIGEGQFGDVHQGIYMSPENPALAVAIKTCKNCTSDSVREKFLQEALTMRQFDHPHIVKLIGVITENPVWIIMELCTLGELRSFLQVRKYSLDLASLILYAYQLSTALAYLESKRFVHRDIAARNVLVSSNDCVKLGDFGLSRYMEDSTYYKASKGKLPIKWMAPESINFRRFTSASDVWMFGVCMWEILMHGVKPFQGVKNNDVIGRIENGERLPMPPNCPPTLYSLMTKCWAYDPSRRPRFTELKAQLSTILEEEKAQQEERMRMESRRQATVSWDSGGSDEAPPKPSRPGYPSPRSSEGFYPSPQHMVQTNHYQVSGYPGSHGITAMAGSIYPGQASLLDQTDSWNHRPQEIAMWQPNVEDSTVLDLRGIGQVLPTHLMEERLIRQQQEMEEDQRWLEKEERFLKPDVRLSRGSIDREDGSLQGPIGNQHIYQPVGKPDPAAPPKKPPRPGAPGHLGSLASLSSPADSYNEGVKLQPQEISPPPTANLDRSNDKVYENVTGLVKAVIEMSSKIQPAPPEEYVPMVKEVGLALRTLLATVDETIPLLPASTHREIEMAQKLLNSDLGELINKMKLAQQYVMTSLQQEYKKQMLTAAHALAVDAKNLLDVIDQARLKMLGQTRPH

Epidermal growth factor receptor, sequence (P00533 whole entry): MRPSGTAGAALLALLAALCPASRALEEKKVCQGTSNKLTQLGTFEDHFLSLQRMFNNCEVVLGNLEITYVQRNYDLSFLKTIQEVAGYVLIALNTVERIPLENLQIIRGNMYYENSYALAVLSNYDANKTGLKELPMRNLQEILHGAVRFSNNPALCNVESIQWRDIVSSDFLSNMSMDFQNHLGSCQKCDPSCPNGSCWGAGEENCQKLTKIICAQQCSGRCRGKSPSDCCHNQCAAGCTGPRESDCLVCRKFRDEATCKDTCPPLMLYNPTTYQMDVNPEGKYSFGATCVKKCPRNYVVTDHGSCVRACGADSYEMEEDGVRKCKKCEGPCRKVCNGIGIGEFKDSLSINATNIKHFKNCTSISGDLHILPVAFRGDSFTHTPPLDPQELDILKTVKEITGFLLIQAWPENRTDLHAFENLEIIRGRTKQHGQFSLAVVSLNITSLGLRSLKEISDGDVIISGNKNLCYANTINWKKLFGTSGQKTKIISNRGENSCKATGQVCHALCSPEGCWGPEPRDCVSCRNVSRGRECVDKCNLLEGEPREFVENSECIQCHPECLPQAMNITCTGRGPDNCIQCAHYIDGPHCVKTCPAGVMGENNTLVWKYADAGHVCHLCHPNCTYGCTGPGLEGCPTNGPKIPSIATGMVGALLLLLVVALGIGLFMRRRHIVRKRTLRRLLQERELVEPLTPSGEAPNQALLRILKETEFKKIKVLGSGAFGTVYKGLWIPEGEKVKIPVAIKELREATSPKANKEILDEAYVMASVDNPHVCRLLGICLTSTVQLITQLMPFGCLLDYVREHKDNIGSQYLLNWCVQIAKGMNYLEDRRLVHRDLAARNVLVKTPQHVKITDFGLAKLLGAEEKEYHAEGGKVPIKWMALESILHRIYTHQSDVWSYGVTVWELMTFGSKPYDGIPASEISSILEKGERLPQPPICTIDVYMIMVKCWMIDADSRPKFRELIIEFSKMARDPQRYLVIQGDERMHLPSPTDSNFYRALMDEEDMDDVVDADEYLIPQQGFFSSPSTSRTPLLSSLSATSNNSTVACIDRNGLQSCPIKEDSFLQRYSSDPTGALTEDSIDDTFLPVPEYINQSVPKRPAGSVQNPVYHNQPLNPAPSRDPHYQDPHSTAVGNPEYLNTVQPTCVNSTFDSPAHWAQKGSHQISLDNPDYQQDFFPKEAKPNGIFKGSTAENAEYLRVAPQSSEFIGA

| IC50 [1] | IC50 [2] | SMILES | GI50 [3] | also measured |
| --- | --- | --- | --- | --- |
| 0.009 µM | 0.275 µM | NC(=O)Nc1ccc(C(=O)Nc2ccc3ncnc(Nc4ccc(F)c(Cl)c4)c3c2)cc1 | – | – |
| > 10 µM | > 10 µM | CCNC(=O)Nc1ccc2ncnc(Nc3ccc(Oc4ccc(Cl)c(Cl)c4)c(Cl)c3)c2c1 | > 10 µM | – |
| 0.445 µM | 2.72 µM | N#CC(C#N)=CNc1ccc2ncnc(Nc3ccc(OCc4cccc(F)c4)c(Cl)c3)c2c1 | – | – |
| 0.023 µM | 1 µM | CCOC(=O)C(=CNc1ccc2ncnc(Nc3ccc(Oc4cccc(C(F)(F)F)c4)c(Cl)c3)c2c1)C(=O)OCC | – | – |
| 0.099 µM | 0.287 µM | NC(=O)Nc1ccc2ncnc(Nc3ccc(OCc4cccc(F)c4)c(Cl)c3)c2c1 | 4.72 µM | – |
| 0.029 µM | 0.625 µM | CCNC(=O)Nc1ccc2ncnc(Nc3ccc(Oc4cccc(C(F)(F)F)c4)c(Cl)c3)c2c1 | 3.55 µM | – |
| 0.812 µM | 5.05 µM | CCOC(=O)C(=CNc1ccc2ncnc(Nc3ccc(OCc4cccc(F)c4)c(Cl)c3)c2c1)C(=O)OCC | – | – |
| – | – | CS(=O)(=O)CCNCc1ccc(-c2ccc3ncnc(Nc4ccc(OCc5cccc(F)c5)c(Cl)c4)c3c2)o1 [LAPATINIB] | 0.93 µM | – |
| 0.543 µM | 0.706 µM | NC(=O)Nc1ccc2ncnc(Nc3ccc(Oc4ccc(Cl)c(Cl)c4)c(Cl)c3)c2c1 | 2.38 µM | – |
| 0.227 µM | 1.39 µM | CCNC(=O)Nc1ccc2ncnc(Nc3ccc(OCc4ccccn4)c(Cl)c3)c2c1 | 1.95 µM | IC50 [4]: > 100 µM |
| 3.05 µM | 8 µM | N#CC(C#N)=CNc1ccc2ncnc(Nc3ccc(OCc4ccccn4)c(Cl)c3)c2c1 | – | – |
| 0.003 µM | 0.016 µM | CC(=O)Nc1ccc2ncnc(Nc3ccc(OCc4ccccn4)c(Cl)c3)c2c1 | 2.7 µM | IC50 [5]: Not Active; IC50 [6]: Not Active; IC50 [7]: Not Active; IC50 [8]: 1.22 µM; IC50 [9]: Not Active; IC50 [10]: Not Active; IC50 [11]: Not Active; IC50 [12]: Not Active; IC50 [13]: Not Active; IC50 [4]: > 100 µM |
| > 10 µM | > 10 µM | CCOC(=O)C(=CNc1ccc2ncnc(Nc3ccc(Oc4ccc(Cl)c(Cl)c4)c(Cl)c3)c2c1)C(=O)OCC | – | – |
| 0.031 µM | 0.855 µM | CCNC(=O)Nc1ccc(C(=O)Nc2ccc3ncnc(Nc4ccc(F)c(Cl)c4)c3c2)cc1 | – | – |
| 0.004 µM | 0.077 µM | NC(=O)Nc1ccc2ncnc(Nc3ccc(Oc4cccc(C(F)(F)F)c4)c(Cl)c3)c2c1 | > 10 µM | – |
| > 10 µM | > 10 µM | N#CC(C#N)=CNc1ccc2ncnc(Nc3ccc(Oc4ccc(Cl)c(Cl)c4)c(Cl)c3)c2c1 | – | – |
| 1.02 µM | 3.29 µM | CCOC(=O)C(=CNc1ccc2ncnc(Nc3ccc(OCc4ccccn4)c(Cl)c3)c2c1)C(=O)OCC | – | – |
| 1.46 µM | > 10 µM | CCOC(=O)C(=CNC(=O)Nc1ccc(C(=O)Nc2ccc3ncnc(Nc4ccc(F)c(Cl)c4)c3c2)cc1)C(=O)OCC | – | – |
| 0.035 µM | 0.126 µM | CCNC(=O)Nc1ccc2ncnc(Nc3ccc(OCc4cccc(F)c4)c(Cl)c3)c2c1 | 1.82 µM | IC50 [4]: > 100 µM |
